According to doi:10.64898/2025.12.05.692609v2, “Early intervention with a PACAP lactoside following repetitive mild traumatic brain injury prevents persistent LHb hyperactivity and motivational deficits in male mice” (bioRxiv, 2025):
Where two headings read alike, the source gives them in different places. Where a SMILES comes first, the peptide text is derived from it. [ ]: non-standard residue; d: D form. The star is where a group is joined. X1 = OC[C@H]1O[C@@H](O[C@H]2[C@H](O)[C@@H](O)[C@H](*)O[C@@H]2CO)[C@H](O)[C@@H](O)[C@H]1O; Nle = CCCC[C@H](N)C(=O)O

Key:
[1] = PWR membrane partitioning into receptor-free egg phosphatidylcholine membranes; assay type: physicochemical
[2] = Time-locked brain microdialysis and blood sampling pharmacokinetics; conditions: for Brain Dialysate: AUC / Brain Dialysate: Cmax / Brain Dialysate: Tmax: 3 mg/kg IP, striatal microdialysis 0-60 min; for Brain Dialysate: AUC: TES2300 and TES2320 co-injected, estimated concentration by probe recovery; for Brain Dialysate: AUC / Brain Dialysate: Cmax: LC-MS/MS, mean ± SEM; for Brain Dialysate: Cmax: estimated by probe recovery
Excerpt: (§1) Mice (PN56-70) were anesthetized with isoflurane (1%) mixed with medical grade oxygen (0.75 L/min). Two incisions were made: a 0.5 cm incision in between the scapulae and a 1-cm ventral neck incision right of midline. The right carotid artery was isolated, ligated cranially with 4-0 silk, and temporarily occluded at the caudal end of the vessel with a micro clamp. A small incision was made into the carotid artery and PE-10 tubing, preflushed with heparin/glycerol (500 IU/ml, 50:50) and connected to a 28-gauge PinPort^TM (PNP3F28; Instech, Plymouth Meeting, PA), was advanced toward the heart. The clamp was released, the caudal ligature secured the catheter, and the catheter was tunneled subcutaneously to the scapular incision. Both incisions were closed with staples. The mouse was immediately transferred to a stereotaxic frame to implant the microdialysis probe.
(§2) A midsagittal skull incision was followed by a craniotomy (AP +0.5 mm, ML +2.0 mm from bregma). The dura was removed and a microdialysis probe (CMA12, 8309664, 4 mm membrane, 100 kDa cutoff; HBio, Holliston, MA) was inserted into the striatum (DV −5.0 mm).
(§3) Microdialysis probes were primed with artificial cerebrospinal fluid aCSF (15 mM Tris HCl, 10 mM Tris base, 126 mM NaCl, 2.5 KCl, 1.2 mM NaH2PO4, 2mM Na2SO4, and adjusted pH to 7.4) containing 0.05% bovine serum albumin (BSA) at a rate of 1 μL/minute using a two channel dual syringe pump (Fusion 101A Syringe Pump; Chemyx, Stafford, TX) for one-hour and then placed into the striatum at the coordinates listed above for 30-minutes prior to collecting baseline dialysate. Using the other pump channel, the preservation solution containing 150 ng/mL DADLE ([D-Ala2, D-Leu5]-Enkephalin; 10% acetic acid in 0.05% BSA in aCSF as an internal standard) is combined with the dialysate immediately via a micro-Tee at a flow rate of 1 μL/min (Figure 2A.). […] Dialysate was collected at −10, +10, +20, +30, +40, +50, and +60 minutes. Blood was collected at −5, +1, +5, +15, +25, +35, +45, and +55 minutes to correspond to the midpoint of the dialysate fraction. To separate plasma from whole blood, each sample was collected in ethylenediamine tetraacetic acid capillary tubes (CT-CB300-K2EDTA; Sarstedt, Nümbrecht, Germany), inverted repeatedly for 30 seconds, and centrifuged for 5 minutes at 2,500 x g in a refrigerated centrifuge (Galaxy Mini Centrifuge; VWR, Radnor, PA).
(§4) Biological sample preparation: Plasma samples (20 µL) were mixed with 20 µL of an internal standard working solution containing 150 ng/mL (DADLE) in 10% acetic acid. To precipitate proteins in both plasma and dialysate, 120 µL of ice-cold methanol was added to the plasma mixture and the dialysate samples (20 µL, premixed with preservation solution). After vortexing for 30 seconds, samples were centrifuged at 8,000 x g for 10-minutes at 4°C. The supernatant was evaporated using a Savant Speedvac concentrator. Dialysate and plasma samples were reconstituted in 20 μL of diluent (5% methanol and 0.1% formic acid in nanopure water).
(§5) Liquid chromatography and mass spectrometry: Samples were injected into the Thermo Fisher Scientific UHPLC-MS/MS TSQ system. Separation was achieved on an ACQUITY UPLC HSS T3 C18 Column (100 Å, 1.8 µm, 2.1 × 100 mm) and VanGuard pre-column (HSS T3 1.8 μm, 2.1 × 5 mm) and a HyperSep Retain PEP trap column (2.1 × 10 mm) with the column temperature set at 40 °C. We used a water-acetonitrile gradient with a flow rate of 0.2 mL/min and a total run time of 25. The mobile phases used were A: 0.1% v/v formic acid in deionized water and B: 0.1% v/v formic acid in acetonitrile, with the following conditions: 0 to 1 min (2 %B diverted to waste), 1.0 to 1.2 min (5% B), 1.2 min to 6 min (15% B), 6 min to 11 min (30% B), 11 min to 12.5 min (95% B), 12.5 min to 18 min (95% B), 18 min to 18.5 min (5 %B) 18.5 min to 23.5 min (5% B), 23.5 min to 25 min (2 %B). Injection volumes of 10 µL for dialysate and 5 µL for the plasma sample were used.

human PAC1 receptor = molecular target: T1, human PAC1 receptor (Homo sapiens, UniProt P41586); assay: biochemical
T1 sequence (P41586 21-468): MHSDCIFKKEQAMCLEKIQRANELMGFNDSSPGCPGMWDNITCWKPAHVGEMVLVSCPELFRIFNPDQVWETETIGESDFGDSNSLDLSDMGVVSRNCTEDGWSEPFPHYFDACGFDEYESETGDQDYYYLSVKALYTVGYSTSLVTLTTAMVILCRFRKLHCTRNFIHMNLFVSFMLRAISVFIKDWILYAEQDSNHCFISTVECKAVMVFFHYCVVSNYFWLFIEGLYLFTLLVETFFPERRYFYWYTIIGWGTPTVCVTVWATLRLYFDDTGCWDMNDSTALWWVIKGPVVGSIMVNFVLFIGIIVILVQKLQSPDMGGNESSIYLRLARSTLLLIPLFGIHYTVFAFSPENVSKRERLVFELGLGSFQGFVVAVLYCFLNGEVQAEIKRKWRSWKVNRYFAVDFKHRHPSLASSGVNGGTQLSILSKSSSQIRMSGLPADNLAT
Excerpt: Plasmon Waveguide Resonance (PWR) spectroscopy, an enhanced technology related to Surface Plasmon Resonance (SPR) is capable of monitoring molecular anisotropy and measuring mass and structural changes in real time along with molecular interactions with receptor in the lipid bilayer. PWR was utilized to quantify label-free ligand binding affinities. Intact cell membranes containing human PAC1 receptors (purified and isolated from CHO cells, as described below) were immobilized onto the silica surface of a PWR prism element.
The prism was integrated into a PWR spectrometer system (Mainline Scientific, Malvern, PA). […] Binding events, along with any associated conformational shifts in the receptor or lipid matrix, were directly monitored via the angular resonance shifts of parallel (p-polarized) and perpendicular (s-polarized) light.

in vivo = conditions: C57Bl/6J, mouse, ip, 3 mg/kg
Excerpt: as §1, §2, §3, §4, §5

LHb neurons = assay: LHb neuronal excitability, intrinsic properties, rebound bursting, Ih and M-currents in slices after in vivo treatment; parameters: species or system male C57BL/6 mice; conditions: for effect on mTBI-induced LHb hyperexcitability (APs on depolarization): vs mTBI+vehicle P<0.0001, 2-way ANOVA
VPAC1 receptors = conditions: cited from earlier work
[3] = system: male C57BL/6 mice, repetitive closed-head mTBI
[4] = C57Bl/6J mice, co-injected, n=4, SEM
[5] = C57Bl/6J mice, co-injected, n=4
[6] = C57Bl/6J, mouse, plasma, ip, 3 mg/kg, SEM
[7] = early intervention, 10 mg/kg i.p. x5
[8] = late intervention, single 10 mg/kg i.p.
[9] = C57Bl/6J mice, 3 mg/kg IP each, co-injected, 0-60 min, n=4, ratio paired t-test

CCCC[C@H](NC(=O)[C@H](CCC(N)=O)NC(=O)[C@H](CCCCN)NC(=O)[C@H](CCCNC(=N)N)NC(=O)[C@H](Cc1ccc(O)cc1)NC(=O)[C@H](CCCNC(=N)N)NC(=O)[C@H](CO)NC(=O)[C@H](Cc1ccc(O)cc1)NC(=O)[C@H](CO)NC(=O)[C@H](CC(=O)O)NC(=O)[C@@H](NC(=O)[C@H](Cc1ccccc1)NC(=O)[C@@H](NC(=O)CNC(=O)[C@H](CC(=O)O)NC(=O)[C@H](CO)NC(=O)[C@@H](N)Cc1c[nH]cn1)[C@@H](C)CC)[C@@H](C)O)C(=O)N[C@@H](C)C(=O)N[C@H](C(=O)N[C@@H](CCCCN)C(=O)N[C@@H](CCCCN)C(=O)N[C@@H](Cc1ccc(O)cc1)C(=O)N[C@@H](CC(C)C)C(=O)N[C@@H](CO)C(N)=O)C(C)C [TES2300] (H-HSDGIFTDSYSRYRKQ[Nle]AVKKYLS-NH2; N-terminus assumed)
affinity for PC bilayers relative to TES2320 ([1]; PWR, PC bilayers, unglycosylated variant vs TES2320): ten fold higher affinity | Kd ([1]; as quoted in the pharmacokinetics section, membrane not specified, read-out: Kd, affinity for the membrane): 0.114 nM | Brain Dialysate: AUC ([2]; C57Bl/6J mice, n=4, SEM): 703 ± 338 ng·min/mL | Brain Dialysate: Cmax [2, 4]: 64 ± 21 ng/mL | Brain Dialysate: Tmax [2, 5]: 8 min | Kp ([2]; C57Bl/6J, mouse, brain dialysate / plasma, ip, 3 mg/kg): 0.513 | Tmax ([2]; C57Bl/6J, mouse, plasma, ip, 3 mg/kg): 4 min | AUC(0-t) [2, 6]: 22.8 ng·h/mL | Cmax [2, 6]: 106 ± 25 ng/mL | half-life [2, 6]: 8 ± 4 min

CCCC[C@H](NC(=O)[C@H](CCC(N)=O)NC(=O)[C@H](CCCCN)NC(=O)[C@H](CCCNC(=N)N)NC(=O)[C@H](Cc1ccc(O)cc1)NC(=O)[C@H](CCCNC(=N)N)NC(=O)[C@H](CO)NC(=O)[C@H](Cc1ccc(O)cc1)NC(=O)[C@H](CO)NC(=O)[C@H](CC(=O)O)NC(=O)[C@@H](NC(=O)[C@H](Cc1ccccc1)NC(=O)[C@@H](NC(=O)CNC(=O)[C@H](CC(=O)O)NC(=O)[C@H](CO)NC(=O)[C@@H](N)Cc1c[nH]cn1)[C@@H](C)CC)[C@@H](C)O)C(=O)N[C@@H](C)C(=O)N[C@H](C(=O)N[C@@H](CCCCN)C(=O)N[C@@H](CCCCN)C(=O)N[C@@H](Cc1ccc(O)cc1)C(=O)N[C@@H](CC(C)C)C(=O)N[C@@H](CO[C@@H]1O[C@H](CO)[C@@H](O[C@@H]2O[C@H](CO)[C@H](O)[C@H](O)[C@H]2O)[C@H](O)[C@H]1O)C(N)=O)C(C)C [TES2320] (H-HSDGIFTDSYSRYRKQ[Nle]AVKKYLS(X1)-NH2; N-terminus assumed)
Kd (human PAC1 receptor): 4.5 pM | Kd ([1]; PWR, receptor-free egg phosphatidylcholine (eggPC) control membranes, read-out: Kd, baseline membrane partitioning affinity): 1.35 nM | Tmax (in vivo): 10 min | AUC(0-t) (in vivo; SEM): 101 ng·h/mL | Cmax (in vivo; SEM): 313 ± 62 ng/mL | half-life (in vivo; SEM): 13 ± 6 min | effect on mTBI-enhanced Ih currents in LHb neurons (LHb neurons; [7]): insufficient to prevent this Ih enhancement | effect on mTBI-reduced M-currents in LHb neurons (LHb neurons; [7]): Neither early nor late TES2320 intervention in mTBI mice normalized this reduction | effect on mTBI-induced LHb hyperexcitability (APs on depolarization) (LHb neurons; early intervention, 10 mg/kg i.p. x5, n=85 cells/13 mice): normalized this hyperexcitability to sham levels | effect on mTBI-induced hyperpolarization-induced rebound bursting (LHb neurons; early intervention, 10 mg/kg i.p. x5, vs mTBI+vehicle p<0.01, 2-way ANOVA): normalize this mTBI-induced increase in rebound bursting | effect on mTBI-induced hyperpolarization-induced rebound bursting (LHb neurons; [8]): no effect | effect on mTBI-reduced M-currents in LHb neurons (LHb neurons; [8]): Neither early nor late TES2320 intervention in mTBI mice normalized this reduction | effect on mTBI-induced LHb hyperexcitability (APs on depolarization) (LHb neurons; late intervention, single 10 mg/kg i.p., n=31 cells/5 mice): normalized this hyperexcitability to sham levels | fast afterhyperpolarization (fAHP) amplitude of LHb neurons (LHb neurons; late intervention, single 10 mg/kg i.p., vs mTBI+vehicle p<0.05, one-way ANOVA): significantly diminished | effect on mTBI-enhanced Ih currents in LHb neurons (LHb neurons; late intervention, single 10 mg/kg i.p., vs sham+vehicle p<0.0001): exaggerated this effect | functional potency at VPAC1 receptors (VPAC1 receptors): picomolar functional potency | total grooming time, sucrose splash test ([3]; early intervention, 10 mg/kg i.p. x5, n=12): no effect | latency to groom, sucrose splash test ([3]; early intervention, 10 mg/kg i.p. x5, n=12, vs mTBI+vehicle p<0.05, one-way ANOVA): effective in preventing the prolonged grooming latency | latency to groom, sucrose splash test ([3]; late intervention, single 10 mg/kg i.p., n=11, vs sham or early TES2320 p<0.01): continued to exhibit increased grooming latency | total grooming time, sucrose splash test ([3]; mouse, in vivo, ip, 10 mg/kg): significantly decreased the total grooming time | fold increase of AUC over TES2300 in the CSF (brain dialysate) [2, 9]: 1.43 fold | fold increase of AUC over TES2300 in the plasma [2, 9]: 4.73 fold | Brain Dialysate: AUC ([2]; C57Bl/6J mice, n=4, SEM): 1071 ± 574 ng·min/mL | Brain Dialysate: Cmax [2, 4]: 74 ± 22 ng/mL | Brain Dialysate: Tmax [2, 5]: 8 min
